Reference: EP1641451B1, “METHOD FOR PHOTODYNAMIC INACTIVATION OF PATHOGENS USING ALA” (MACO PHARMA, priority 2003, dated 2005)

Assays:
Type in all cases: cell-based
Klebsiella pneumoniae = experiment: Bacterio-attenuation test in contaminated CPA, photodynamic treatment at 365 nm
Experimental: (§1) Les bactéries sont injectées dans les échantillons à une concentration finale de 1 bactérie pour 50 000 plaquettes. Les bactéries sont mises en culture dans un bouillon Thyoglycolate-Resazurine (ref: 42074, Biomérieux Marcy l'Etoile, France) (0,5 mL de suspension bactérienne en bouillon ou une colonie sur gélose dans 9 mL de bouillon). Elles sont incubées 24 h à 37°C pour qu'elles soient en phase de croissance lors de leur utilisation. Avant leur utilisation, le bouillon de culture est centrifugé à 2500 g pendant 10 min. à 21°C, le culot est repris dans du NaCl 0,9 % et celui-ci est lavé 3 fois à 2500 g pendant 10 min. à 21 °C.
(§2) Le titre bactérien de la suspension lavée et diluée est évalué par une lecture de densité optique à 630 nm. Une dilution de la suspension bactérienne est ensuite réalisée pour obtenir une concentration finale de 1 bactérie pour 50 000 plaquettes.
(§3) Pour réaliser les tests de bactério-atténuation, les CPA dilués sont aliquotés dans la solution SSP (MacoPharma, Tourcoing, France) pour obtenir une concentration finale en protéines de 10 g/L dans des poches en PVC. Puis 1 mL de suspension bactérienne est injecté. Le volume final contenu dans les poches est de 8 mL. Le tout est homogénéisé pour un meilleur contact entre les plaquettes et les bactéries.
(§4) L'illumination se fait à l'aide d'une lampe UVA comportant deux tubes (réf. VL-215BL, Vilber Lourmat, France) génératrice de rayons UV 365 nm et de lumière visible d'une intensité de 108 µW/cm^2 à une distance de 1 m de l'échantillon. La lampe est disposée à une distance de 13 cm des poches à traitées. L'illumination se fait à 4°C. La lampe délivre une dose de 23 J/cm^2 en 1 h.
(§5) Après illumination, une numération bactérienne est réalisée pour mesurer la diminution du tire bactérien dans les poches traitées. Pour cela, 1 mL de la dilution la plus appropriée est étalée sur des géloses nutritives Trypcase-soja (ref : 43011, boîtes de 90 mm de diamètre, Biomérieux, Marcy l'Etoile, France). Les géloses sont ensuite incubées 24 h à 37 °C pour pouvoir effectuer un comptage. Les résultats sont exprimés en ufc/mL.
Des tests de bactério-atténuation ont été effectués sur Klebsiella pneumoniae. Les tests sont réalisés sur des CPA ajustés à 10 g/L de protéines. Le nombre de plaquettes par poche de 8 mL est de 10,5.10^9.
Les poches sont incubées 1h à température ambiante puis illuminées par irradiation à 365 nm (Fig. 4 et 5).

plaquettes [1] = experiment: Platelet functionality: collagen aggregation test (thrombo-aggregometer, turbidimetry); settings: for % d'aggrégation: CPA 10 g/L proteins
Experimental: (§6) Dans cet exemple, deux tests ont été effectués afin d'évaluer la fonctionnalité des plaquettes en présence de différentes concentrations d'ALA après illumination à l'aide des lampes UVA (365 nm).
Le second test est un test d'agrégation au collagène. Ce test est réalisé à l'aide d'un thrombo-agrégomètre (SEFAM, Regulest, Fleurange, France). L'activation plaquettaire par un agoniste (collagène) est estimée in vitro par turbidimétrie, en enregistrant en continu à 37°C et sous agitation, la transmission d'un faisceau de lumière à travers la suspension plaquettaire. Le regroupement des plaquettes en amas de plus en plus volumineux s'accompagne d'un éclaircissement progressif du milieu. Les résultats sont rendus en pourcentage d'agrégation en fonction du temps, le 100% d'agrégation correspondant au plasma pauvre en plaquettes et le 0% d'agrégation correspondant à l'échantillon avant l'ajout de l'agoniste. L'enregistrement de la transmission lumineuse est déclenché au moment de l'ajout d'un faible volume de l'agoniste à l'échantillon. Ainsi, nous pouvons visualiser le temps de latence, le changement de forme des plaquettes puis l'agrégation qui peut être stable ou réversible.
(§7) Ces deux tests ont été réalisés sur un CPA ajusté à 10 g/L de protéines en présence de concentration croissante d'ALA après 1 h30 d'illumination à 365 nm.
(§8) Le même test a été réalisé sans illumination (1 h30 d'agitation douce à l'obscurité)
(§9) Un test d'agrégation et une inspection visuelle du tournoiement ont été réalisées sur un CPA ajusté à 10 g/L de protéines en présence de PpX sel disodique dans du NaOH 1 N 0,1 % (après 30 minutes d'illumination à 365 nm). Le nombre de plaquettes par poche de 8 ml est de 7,6.10^9.

Escherichia coli = experiment: Bacterio-attenuation test in contaminated CPA, photodynamic treatment at 365 nm
Experimental: as §1, §2, §3, §4, §5
Des tests de bactério-atténuation ont été effectués sur E. coli. Les tests sont réalisés sur des CPA ajustés à 10 g/L de protéines. Le nombre de plaquettes par poche de 8 ml est de 4,7 10^9.
Les poches sont incubées 1 h à 37°C avant d'être irradiées à 365 nm (Fig. 6).
Sans incubation, les résultats sont les suivants (Fig. 7) : […]

plaquettes [2] = experiment: Platelet functionality: visual inspection of swirling (tournoiement) of the CPA; settings: ALA 4 mM; CPA 10 g/L proteins; after 1 h30 illumination at 365 nm
Text: as §6
Le premier test est la visualisation du tournoiement ou « swirling », c'est-à-dire l'inspection visuelle du CPA à travers une source lumineuse (phénomène lié à la présence de formes discoïdes dans la suspension plaquettaire).
as §7, §8, §9

NCC(=O)CCC(=O)O [ALA, acide 5-aminolévulinique]
titre bactérien Klebsiella (Klebsiella pneumoniae; ALA 1 mM, Incub. 1 h at room temperature): 187 10^-2 ufc/ml
titre bactérien Klebsiella (Klebsiella pneumoniae; ALA 1 mM, Incub. 1 h then Irr. 1h30 at 365 nm): 5 10^-2 ufc/ml
titre bactérien Klebsiella (Klebsiella pneumoniae; ALA 1 mM, Incub. 1 h then Irr. 1 h at 365 nm): 14 10^-2 ufc/ml
titre bactérien Klebsiella (Klebsiella pneumoniae; ALA 1 mM, T0, CPA 10 g/L proteins): 201 10^-2 ufc/ml
titre bactérien Klebsiella (Klebsiella pneumoniae; ALA 2 mM, Incub 1 h at room temperature): 163 10^-2 ufc/ml
titre bactérien Klebsiella (Klebsiella pneumoniae; ALA 2 mM, Incub 1 h then Irr 1 h30 at 365 nm): 1 10^-2 ufc/ml
titre bactérien Klebsiella (Klebsiella pneumoniae; ALA 2 mM, Incub 1 h then Irr. 1 h at 365 nm): 9 10^-2 ufc/ml
titre bactérien Klebsiella (Klebsiella pneumoniae; ALA 2 mM, T0, CPA 10 g/L proteins): 159 10^-2 ufc/ml
titre bactérien Klebsiella (Klebsiella pneumoniae; ALA 3 mM, Incub 1 h at room temperature): 168 10^-2 ufc/ml
titre bactérien Klebsiella (Klebsiella pneumoniae; ALA 3 mM, Incub 1 h then Irr 1 h30 at 365 nm): 1 10^-2 ufc/ml
titre bactérien Klebsiella (Klebsiella pneumoniae; ALA 3 mM, Incub 1 h then Irr. 1 h at 365 nm): 8 10^-2 ufc/ml
titre bactérien Klebsiella (Klebsiella pneumoniae; ALA 3 mM, T0, CPA 10 g/L proteins): 179 10^-2 ufc/ml
titre bactérien Klebsiella (Klebsiella pneumoniae; ALA 4 mM, Incub 1h at room temperature): 192 10^-2 ufc/ml
titre bactérien Klebsiella (Klebsiella pneumoniae; ALA 4 mM, Incub 1h then Irr 1h30 at 365 nm): 1 10^-2 ufc/ml
titre bactérien Klebsiella (Klebsiella pneumoniae; ALA 4 mM, Incub 1h then Irr. 1h at 365 nm): 6 10^-2 ufc/ml
titre bactérien Klebsiella (Klebsiella pneumoniae; ALA 4 mM, T0, CPA 10 g/L proteins): 183 10^-2 ufc/ml
titre bactérien Klebsiella (Klebsiella pneumoniae; ALA 5 mM, Incub. 1h at room temperature): 175 10^-2 ufc/ml
titre bactérien Klebsiella (Klebsiella pneumoniae; ALA 5 mM, Incub. 1h then 'Irr 1h 1h30' at 365 nm): 0 10^-2 ufc/ml
titre bactérien Klebsiella (Klebsiella pneumoniae; ALA 5 mM, Incub. 1h then 'Irr.' at 365 nm): 4 10^-2 ufc/ml
titre bactérien Klebsiella (Klebsiella pneumoniae; ALA 5 mM, T0, CPA 10 g/L proteins): 178 10^-2 ufc/ml
inactivation de K. pneumoniae (Klebsiella pneumoniae; CPA irradiated 1h and 1 h30 at 365 nm with ALA 1-5 mM, no significant difference between concentrations): obtenue
% d'aggrégation (plaquettes [1]; ALA 1 mM, after 1 h30 illumination at 365 nm, collagen): 80%
% d'aggrégation (plaquettes [1]; ALA 1 mM, no illumination, 1 h30 in the dark, collagen): 84%
% d'aggrégation (plaquettes [1]; ALA 2 mM, after 1 h30 illumination at 365 nm, collagen): 69%
% d'aggrégation (plaquettes [1]; ALA 2 mM, no illumination, 1 h30 in the dark, collagen): 84%
% d'aggrégation (plaquettes [1]; ALA 3 mM, after 1 h30 illumination at 365 nm, collagen): 76%
% d'aggrégation (plaquettes [1]; ALA 3 mM, no illumination, 1 h30 in the dark, collagen): 82%
% d'aggrégation (plaquettes [1]; ALA 4 mM, after 1 h30 illumination at 365 nm, collagen): 53%
% d'aggrégation (plaquettes [1]; ALA 4 mM, no illumination, 1 h30 in the dark, collagen): 76%
% d'aggrégation (plaquettes [1]; ALA 5 mM, after 1 h30 illumination at 365 nm, collagen): 26%
% d'aggrégation (plaquettes [1]; ALA 5 mM, no illumination, 1 h30 in the dark, collagen): 78%
fonctionnalité des plaquettes (plaquettes [1]; illumination of CPA with too high a concentration of ALA): semble faire perdre de leur fonctionnalité aux plaquettes
titre bactérien E. Coli (Escherichia coli; ALA 5 mM, Incub 1h at 37°C): 231 10^-2 ufc/ml
titre bactérien E. Coli (Escherichia coli; ALA 5 mM, Incub 1h at 37°C then Irr 1h30 at 365 nm): 1 10^-2 ufc/ml
titre bactérien E. Coli (Escherichia coli; ALA 5 mM, Incub 1h at 37°C then Irr. 1h at 365 nm): 17 10^-2 ufc/ml
titre bactérien E. Coli (Escherichia coli; ALA 5 mM, T0, CPA 10 g/L proteins, series with incubation): 172 10^-2 ufc/ml
titre bactérien E. Coli (Escherichia coli; ALA 5 mM, T0, without incubation): 183 10^-2 ufc/ml
titre bactérien E. Coli (Escherichia coli; ALA 5 mM, without incubation, Irr 1 h30 at 365 nm): 2 10^-2 ufc/ml
titre bactérien E. Coli (Escherichia coli; ALA 5 mM, without incubation, Irr. 1h at 365 nm): 48 10^-2 ufc/ml
inactivation de E.coli (Escherichia coli; ALA (5 mM), even without incubation, irradiation at 365 nm): efficace
inactivation de E.coli (Escherichia coli; CPA irradiated 1 h and 1 h30 at 365 nm with ALA (5 mM), after 1 h incubation at 37°C): obtenue
Swirling (plaquettes [2]): Faible+

protoporphyrine IX [PpIX]
inactivation de K. pneumoniae (Klebsiella pneumoniae; PpIX 10µM, same conditions (incubation 1h, irradiation 1h and 1h30 at 365 nm)): ne permet pas l'inactivation
titre bactérien Klebsiella (Klebsiella pneumoniae; PpIX 10 µM, Incub 1h at room temperature): 162 10^-2 ufc/ml
titre bactérien Klebsiella (Klebsiella pneumoniae; PpIX 10 µM, Incub 1h then Irr 1h30 at 365 nm): 203 10^-2 ufc/ml
titre bactérien Klebsiella (Klebsiella pneumoniae; PpIX 10 µM, Incub 1h then Irr. 1h at 365 nm): 178 10^-2 ufc/ml
titre bactérien Klebsiella (Klebsiella pneumoniae; PpIX 10 µM, T0, CPA 10 g/L proteins): 181 10^-2 ufc/ml
% d'aggrégation (plaquettes [1]; PpIX 1 µM, after 30 minutes illumination at 365 nm): 53%
% d'aggrégation (plaquettes [1]; PpIX 5µM, after 30 minutes illumination at 365 nm): 16%
% d'aggrégation (plaquettes [1]; PpIX 10 µM, after 30 minutes illumination at 365 nm): 16%
% d'aggrégation (plaquettes [1]; PpIX 20 µM, after 30 minutes illumination at 365 nm): 15%
inactivation de E.coli (Escherichia coli; PpIX 10 µM, irradiation at 365 nm): inefficace
titre bactérien E. Coli (Escherichia coli; PpIX 10 µm, T0, without incubation): 166 10^-2 ufc/ml
titre bactérien E. Coli (Escherichia coli; PpIX 10 µm, without incubation, Irr 1 h30 at 365 nm): 108 10^-2 ufc/ml
titre bactérien E. Coli (Escherichia coli; PpIX 10 µm, without incubation, Irr. 1h at 365 nm): 171 10^-2 ufc/ml
